Results on four compounds are retold here after US20130345177A1, “Oleyl Phosphocholine for the Treatment of Mycosis” (DAFRA PHARMA RESEARCH & DEVELOPMENT BVBA, priority 2011, published 2013).

In brackets after ≈: the same amount, converted by molar mass.

Data set [1] concerns Aspergillus fumigatus IHEM 18963 (NCPF 7367). The experiment in a line: CLSI broth dilution antifungal susceptibility (microplates). The format is cell-based. The settings on record: for MIC100 (48 h): 48 hours of incubation; for MIC: NCPF7367, 48 hours of incubation, read-out: MIC100 (48 h). How it is done: (§1) The above strains were contacted with oleyl phosphocholine on microplates and the anti-fungal activity of oleyl phosphocholine was determined. In comparison, the same test was performed using amphotericin B (AMB), voriconazole (VRZ) and itraconazole (ITR). The test protocol used was in conformity with the standard CLSI method: Clinical and Laboratory Standards Institute/National Committee for Clinical Laboratory Standards (2002) Reference method for broth dilution antifungal susceptibility testing of yeasts. […] Clinical and Laboratory Standards Institute/National Committee for Clinical Laboratory Standards Institute, Wayne Pa. Clinical and Laboratory Standards Institute/National Committee for Clinical Laboratory Standards. (2002) Reference method for broth dilution antifungal susceptibility testing of filamentous fungi. Approved Standard document M38-A. Clinical and Laboratory Standards Institute/National Committee for Clinical Laboratory Standards Institute, Wayne […]
(In broth dilution the organism is exposed to a series of concentrations in liquid medium.)

For data set [2], the system named is Aspergillus niger IHEM 5788 (ATCC 10864). Described as above. The format is cell-based. The settings on record: for MIC100 (48 h): 48 hours of incubation; for MIC: ATCC10864, 48 hours of incubation, read-out: MIC100 (48 h). How it is done:
as §1

Data set [3] relates to Aspergillus terreus IHEM 13669 (clinical isolate). The data set is described as above. The format is cell-based. The conditions noted are these: 48 hours of incubation; for MIC: read-out: MIC100 (48 h). The method, then: as §1
In data set [4] the test system is Candida albicans IHEM 3731 (ATCC 10231). The description is as above. The format is cell-based. The conditions noted are these: for MIC100 (48 h): 48 hours of incubation, inhibits growth of 100%; for MIC50: ATCC10231, 48 hours of incubation, inhibits growth of 50%. The method, then: as §1
Data set [5] relates to Candida glabrata IHEM 19371 (clinical blood isolate). The data set is described as above. The format is cell-based. The conditions noted are these: 48 hours of incubation; for MIC100 (48 h): inhibits growth of 100%; for MIC50: Nakaseomyces glabratus, inhibits growth of 50%. How it is done:
as §1

For data set [6], the system named is Candida krusei IHEM 9560 (ATCC 6258). The data set is described as above. The format is cell-based. The conditions noted are these: for MIC100 (48 h): 48 hours of incubation, inhibits growth of 100%; for MIC50: Pichia kudriavzevii, ATCC6258, 48 hours of incubation, inhibits growth of 50%. How it is done:
as §1

Data set [7] has as its system Candida parapsilosis IHEM 3270 (ATCC 22019). Described as above. The conditions noted are these: for MIC100 (48 h): 48 hours of incubation, inhibits growth of 100%; for MIC50: Lodderomyces parapsilosis, ATCC22019, 48 hours of incubation, inhibits growth of 50%. The format is cell-based. How it is done:
as §1

Data set [8] relates to Fusarium solani IHEM 18489 (clinical isolate). The description is as above. The format is cell-based. The conditions noted are these: 48 hours of incubation; for MIC: read-out: MIC100 (48 h). The method, then:
as §1

Data set [9] concerns Scedosporium prolificans IHEM 22387 (clinical blood isolate). Described as above. The format is cell-based. The conditions noted are these: 48 hours of incubation; for MIC: Lomentospora prolificans, read-out: MIC100 (48 h). The method, then:
as §1

Data set [10] has as its system Candida albicans IHEM 19114 (clinical blood isolate resistant for voriconazole and itraconazole). The data set is described as above. The format is cell-based. The settings on record: Candida albicans IHEM 19114 (resistant), 48 hours of incubation; for MIC100 (48 h): inhibits growth of 100%; for MIC50: inhibits growth of 50%. How it is done:
The following ten strains were tested for assaying the anti-fungal activity of oleyl phosphocholine.
The above strains were contacted with oleyl phosphocholine on microplates and the anti-fungal activity of oleyl phosphocholine was determined. In comparison, the same test was performed using amphotericin B (AMB), voriconazole (VRZ) and itraconazole (ITR).
The test protocol used was in conformity with the standard CLSI method:
Clinical and Laboratory Standards Institute/National Committee for Clinical Laboratory Standards (2002) Reference method for broth dilution antifungal susceptibility testing of yeasts. Approved Standard document M27-A2. Clinical and Laboratory Standards Institute/National Committee for Clinical Laboratory Standards Institute, Wayne Pa. Clinical and Laboratory Standards Institute/National Committee for Clinical Laboratory Standards. (2002) Reference method for broth dilution antifungal susceptibility testing of filamentous fungi. Approved Standard document M38-A. Clinical and Laboratory Standards Institute/National Committee for Clinical Laboratory Standards Institute, Wayne
The results, after visual and spectrophometric reading after 48 hours of incubation, are presented as MIC50 and MIC 100, i.e. the minimum inhibitory concentration required inhibiting the growth of 50% or 100% of the microorganisms, respectively.

In data set [11] the test system is Aspergillus fumigatus B19119. The data set can be described thus: In vitro efficacy against yeasts and fungi (microplates). The format is cell-based. The method, then: (§2) The above strains were contacted oleyl phosphocholine on microplates and the anti-fungal activity of oleyl phosphocholine was determined. Anti-fungal activity was expressed as IC50, i.e. the concentration oleyl phosphocholine needed to kill 50% of the pathogens.

The test system of data set [12] is Aspergillus fumigatus B42928. The description is as above. The format is cell-based. How it is done: as §2
In a further data set the test system is Aspergillus fumigatus. Described as above. The format is cell-based. How it is done:
as §2

For data set [13], the system named is Candida albicans B59630 (R). The description is as above. The format is cell-based. How it is done:
as §2

Data set [14] relates to Candida albicans B63195 (S). Described as above. The format is cell-based. How it is done:
as §2

The subject of the next data set is Candida albicans. The data set is described as above. The format is cell-based. The settings on record: concentration needed to kill 50% of the pathogens. How it is done:
as §2

Data set [15] concerns Candida parapsilosis B66126. Described as above. The format is cell-based. The method, then:
as §2

For data set [16], the system named is Cryptococcus neoformans B66663. The description is as above. The format is cell-based. The method, then:
as §2

A further data set deals with Cryptococcus neoformans. The description is as above. The format is cell-based. The method, then:
as §2

Data set [17] has as its system Fusarium oxysporum IHEM3014. The data set is described as above. The format is cell-based. The method, then:
as §2

The test system of data set [18] is Fusarium solani IHEM22128. Described as above. The format is cell-based. The method, then: as §2
A further data set concerns Microsporum canis. Described as above. The format is cell-based. How it is done: as §2
The test system of data set [19] is Sporothrix schenkii B62482. The description is as above. The format is cell-based. The method, then:
as §2

In another data set the test system is Sporothrix schenkii. The description is as above. The format is cell-based. The method, then: as §2
For data set [20], the system named is Trichophyton mentagrophytes B70554. Described as above. The format is cell-based. How it is done:
as §2

In data set [21] the test system is Trichophyton rubrum B68183. The description is as above. The format is cell-based. How it is done: as §2
Another data set relates to Trichophyton rubrum. The description is as above. The format is cell-based. The method, then:
as §2

Another data set has as its system Candida yeast. The conditions noted are these: patients with culture-proven candidemia; cited from earlier work.
The conditions of data set [22]: people taking itraconazole; cited from earlier work.

Turning to `CCCCCCCC/C=C\CCCCCCCCOP(=O)([O-])OCC[N+](C)(C)C` [OlPC, oleyl phosphocholine], the “MIC100 (48 h)” value in data set [1] amounted to 5 µg/mL (≈ 11.5 µM); in data set [2] it was 10 µg/mL (≈ 23.1 µM); in data set [3], 10 µg/mL (≈ 23.1 µM); in data set [4], 2.5 µg/mL (≈ 5.77 µM); in data set [5], 5 µg/mL (≈ 11.5 µM); in data set [6] it was 5 µg/mL (≈ 11.5 µM). The “MIC100 (48 h)” value in data set [7] amounted to 5 µg/mL (≈ 11.5 µM); in [8] it was 5 µg/mL (≈ 11.5 µM); in data set [9] it was 5 µg/mL (≈ 11.5 µM); in data set [10], 2.5 µg/mL (≈ 5.77 µM). Moreover, the IC50 – broadly, the concentration that gives 50% inhibition – in data set [11] is 1870 nM; in data set [12], 8 µM; in the data set on Aspergillus fumigatus it was 18.8 µM; in data set [13], 8 µM; in [14], 7.77 µM; in the data set on Candida albicans, 7.89 µM. Further, the IC50 is 8 µM in data set [15]; 500 nM in data set [16]; 4.5 µM with Cryptococcus neoformans; 2550 nM in [17]; 2310 nM in [18]; 1660 nM in the data set on Microsporum canis. Further, the half-maximal inhibitory concentration (IC50) came out at 1970 nM in [19]; 8.16 µM with Sporothrix schenkii; 2000 nM in data set [20]; 2000 nM in data set [21]; 5.87 µM with Trichophyton rubrum.

On to `C[C@@H]1[C@H](O)[C@@H](C)/C=C/C=C/C=C/C=C/C=C/C=C/C=C/[C@H](O[C@@H]2O[C@H](C)[C@@H](O)[C@H](N)[C@@H]2O)C[C@@H]2O[C@](O)(C[C@@H](O)C[C@@H](O)[C@H](O)CC[C@@H](O)C[C@@H](O)CC(=O)O[C@H]1C)C[C@H](O)[C@H]2C(=O)O` [AMB, amphotericin B], for which the “MIC100 (48 h)” value is 2 µg/mL (≈ 2.16 µM) in [1]; 1 µg/mL (≈ 1.08 µM) in data set [2]; more than 8 µg/mL in data set [3]; 0.5 µg/mL (≈ 0.541 µM) in [4]; 0.5 µg/mL (≈ 0.541 µM) in data set [5]; 1 µg/mL (≈ 1.08 µM) in [6]. For the same compound, the “MIC100 (48 h)” value was 1 µg/mL (≈ 1.08 µM) in [7], 2 µg/mL (≈ 2.16 µM) in data set [8], more than 8 µg/mL in data set [9] and 0.5 µg/mL (≈ 0.541 µM) in data set [10]. Besides, the “time to clear Candida yeast from the bloodstream (median)” value in the data set on Candida yeast is 2 days.

As for `CCC(C)n1ncn(-c2ccc(N3CCN(c4ccc(OCC5COC(Cn6cncn6)(c6ccc(Cl)cc6Cl)O5)cc4)CC3)cc2)c1=O` (centres unmarked) [ITR, itraconazole], the MIC in [1] was 0.5 µg/mL (≈ 0.709 µM); in data set [2], 0.5 µg/mL (≈ 0.709 µM); in data set [3], 0.25 µg/mL (≈ 0.354 µM); in data set [8], more than 16 µg/mL; in data set [9], more than 16 µg/mL. For the same compound, the MIC50 (usually the lowest concentration that inhibits either 50% of growth or 50% of the strains tested, depending on the study) is 0.032 µg/mL (≈ 0.0453 µM) in data set [4]; 0.5 µg/mL (≈ 0.709 µM) in data set [5]; 0.25 µg/mL (≈ 0.354 µM) in [6]; 0.064 µg/mL (≈ 0.0907 µM) in [7]; more than 16 µg/mL in data set [10]. Besides, the “people with elevated alanine aminotransferase levels” value in data set [22] is reported as 4%.

With `C[C@@H](c1ncncc1F)[C@](O)(Cn1cncn1)c1ccc(F)cc1F` [VRZ, voriconazole], the MIC stood at 1 µg/mL (≈ 2.86 µM) in [1]; 1 µg/mL (≈ 2.86 µM) in data set [2]; 0.5 µg/mL (≈ 1.43 µM) in [3]; 16 µg/mL (≈ 45.8 µM) in data set [8]; 16 µg/mL (≈ 45.8 µM) in [9]. The MIC50 is 0.064 µg/mL (≈ 0.183 µM) in data set [4]; 0.25 µg/mL (≈ 0.716 µM) in [5]; 0.5 µg/mL (≈ 1.43 µM) in data set [6]; 0.125 µg/mL (≈ 0.358 µM) in data set [7]; more than 16 µg/mL in data set [10].
